Source: ChEMBL document CHEMBL1201862, “PubChem BioAssay data set” (2004)
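Assay format: 96-well plates, 48-hour exposure. At the GI50, growth is halved.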 Activity calls are given as the source filed them. No stated cut-off is given here; in the data, active = GI50 up to about 1.1 µM and inactive = higher.

Assays:
Experiment in all cases: DTP human tumour cell line panel, 48 h
SN12C = system: SN12C
MCF7 = system: MCF7
ACHN = system: ACHN
RXF 393 = system: RXF 393
OVCAR-8 = system: OVCAR-8
SF-539 = system: SF-539
SK-MEL-5 = system: SK-MEL-5
UACC-62 = system: UACC-62
MOLT-4 = system: MOLT-4
K562 = system: K562
A498 = system: A498
RPMI-8226 = system: RPMI-8226
TK-10 = system: TK-10
MDA-N = system: MDA-N
DU-145 = system: DU-145
KM12 = system: KM12
IGROV-1 = system: IGROV-1
NCI-H23 = system: NCI-H23
SK-MEL-2 = system: SK-MEL-2
EKVX = system: EKVX
SW-620 = system: SW-620
NCI-H460 = system: NCI-H460
UACC-257 = system: UACC-257
OVCAR-4 = system: OVCAR-4
T47D = system: T47D
HCT-116 = system: HCT-116
CAKI-1 = system: CAKI-1
HL-60 = system: HL-60
HCT-15 = system: HCT-15
Hs-578T = system: Hs-578T
M14 = system: M14
NCI-H522 = system: NCI-H522
A549 = system: A549
HOP-62 = system: HOP-62
HT-29 = system: HT-29
SNB-19 = system: SNB-19
PC-3 = system: PC-3
MDA-MB-435 = system: MDA-MB-435
OVCAR-5 = system: OVCAR-5
SR = system: SR
UO-31 = system: UO-31
OVCAR-3 = system: OVCAR-3
COLO 205 = system: COLO 205
NCI/ADR-RES = system: NCI/ADR-RES
SK-OV-3 = system: SK-OV-3
NCI-H226 = system: NCI-H226
SF-268 = system: SF-268
HCC 2998 = system: HCC 2998
BT-549 = system: BT-549
LOX IMVI = system: LOX IMVI
Malme-3M = system: Malme-3M
CCRF-CEM = system: CCRF-CEM
HOP-92 = system: HOP-92
SF-295 = system: SF-295
786-0 = system: 786-0
SNB-75 = system: SNB-75
MDA-MB-231 = system: MDA-MB-231
SK-MEL-28 = system: SK-MEL-28
U-251 = system: U-251

O=C(NNCc1ccco1)c1cc2ccccc2[nH]1
GI50 (SN12C): > 61 µM (inactive)
GI50 (MCF7): 0.133 µM (active)
GI50 (ACHN): > 54.7 µM (inactive)
GI50 (RXF 393): > 100 µM (inactive)
GI50 (OVCAR-8): > 53.1 µM (inactive)
GI50 (SF-539): > 61.9 µM (inactive)
GI50 (SK-MEL-5): > 100 µM (inactive)
GI50 (UACC-62): > 100 µM (inactive)
GI50 (MOLT-4): > 100 µM (inactive)
GI50 (K562): > 100 µM (inactive)
GI50 (A498): > 100 µM (inactive)
GI50 (RPMI-8226): > 100 µM (inactive)
GI50 (TK-10): > 58.1 µM (inactive)
GI50 (MDA-N): > 100 µM (inactive)
GI50 (DU-145): > 100 µM (inactive)
GI50 (KM12): 65.8 µM (inactive)
GI50 (IGROV-1): 50.7 µM (inactive)
GI50 (NCI-H23): > 61.9 µM (inactive)
GI50 (SK-MEL-2): > 100 µM (inactive)
GI50 (EKVX): 61.5 µM (inactive)
GI50 (SW-620): > 100 µM (inactive)
GI50 (NCI-H460): > 71.4 µM (inactive)
GI50 (UACC-257): > 62.5 µM (inactive)
GI50 (OVCAR-4): > 39.1 µM (inactive)
GI50 (T47D): 13.5 µM (inactive)
GI50 (HCT-116): > 86.1 µM (inactive)
GI50 (CAKI-1): > 100 µM (inactive)
GI50 (HL-60): > 29.1 µM (inactive)
GI50 (HCT-15): > 87.5 µM
GI50 (Hs-578T): 14.9 µM (inactive)
GI50 (M14): > 94 µM (inactive)
GI50 (NCI-H522): 34.3 µM (inactive)
GI50 (A549): > 100 µM (inactive)
GI50 (HOP-62): > 52.6 µM (inactive)
GI50 (HT-29): > 86.9 µM (inactive)
GI50 (SNB-19): > 80.2 µM (inactive)
GI50 (PC-3): > 91 µM (inactive)
GI50 (MDA-MB-435): > 85.5 µM (inactive)
GI50 (OVCAR-5): > 100 µM (inactive)
GI50 (SR): > 78.9 µM (inactive)
GI50 (UO-31): > 74.6 µM (inactive)
GI50 (OVCAR-3): > 55.6 µM (inactive)
GI50 (COLO 205): > 100 µM (inactive)
GI50 (NCI/ADR-RES): > 52.4 µM (inactive)
GI50 (SK-OV-3): > 56 µM (inactive)
GI50 (NCI-H226): > 100 µM (inactive)
GI50 (SF-268): 38.8 µM (inactive)
GI50 (HCC 2998): > 36.9 µM (inactive)
GI50 (BT-549): > 52.2 µM (inactive)
GI50 (LOX IMVI): > 100 µM (inactive)
GI50 (Malme-3M): > 100 µM (inactive)
GI50 (CCRF-CEM): > 100 µM (inactive)
GI50 (HOP-92): 48 µM (inactive)
GI50 (SF-295): 91.8 µM (inactive)
GI50 (786-0): > 51.5 µM (inactive)
GI50 (SNB-75): 47.9 µM (inactive)
GI50 (MDA-MB-231): > 100 µM (inactive)
GI50 (SK-MEL-28): > 100 µM (inactive)

CCO/C=C1\SC(=S)N(c2ccc(OCC)cc2)C1=O
GI50 (U-251): 48 µM (inactive)
GI50 (SN12C): > 100 µM (inactive)
GI50 (MCF7): 75.5 µM (inactive)
GI50 (ACHN): > 100 µM (inactive)
GI50 (RXF 393): 33.3 µM (inactive)
GI50 (OVCAR-8): > 100 µM (inactive)
GI50 (SF-539): 44.9 µM (inactive)
GI50 (SK-MEL-5): 76.7 µM (inactive)
GI50 (UACC-62): 68.4 µM (inactive)
GI50 (MOLT-4): 43.1 µM (inactive)
GI50 (K562): 44.6 µM (inactive)
GI50 (A498): 80.4 µM (inactive)
GI50 (RPMI-8226): 41.5 µM (inactive)
GI50 (TK-10): 90.4 µM (inactive)
GI50 (MDA-N): 45.2 µM (inactive)
GI50 (DU-145): 51.4 µM (inactive)
GI50 (KM12): 50.8 µM (inactive)
GI50 (IGROV-1): > 100 µM (inactive)
GI50 (NCI-H23): > 100 µM (inactive)
GI50 (SK-MEL-2): 59.4 µM (inactive)
GI50 (EKVX): > 100 µM (inactive)
GI50 (SW-620): > 100 µM (inactive)
GI50 (NCI-H460): > 100 µM (inactive)
GI50 (UACC-257): 78.7 µM (inactive)
GI50 (OVCAR-4): 57 µM (inactive)
GI50 (T47D): 28.9 µM (inactive)
GI50 (HCT-116): > 100 µM (inactive)
GI50 (CAKI-1): 55.7 µM (inactive)
GI50 (HL-60): > 100 µM (inactive)
GI50 (HCT-15): 72.4 µM
GI50 (Hs-578T): 39.9 µM (inactive)
GI50 (M14): 97.5 µM (inactive)
GI50 (NCI-H522): 67.3 µM (inactive)
GI50 (A549): > 100 µM (inactive)
GI50 (HOP-62): > 100 µM (inactive)
GI50 (HT-29): > 100 µM (inactive)
GI50 (SNB-19): > 100 µM (inactive)
GI50 (PC-3): 57.1 µM (inactive)
GI50 (MDA-MB-435): 78.5 µM (inactive)
GI50 (OVCAR-5): > 100 µM (inactive)
GI50 (SR): 30.2 µM (inactive)
GI50 (UO-31): 54.5 µM (inactive)
GI50 (OVCAR-3): > 100 µM (inactive)
GI50 (COLO 205): > 100 µM (inactive)
GI50 (NCI/ADR-RES): > 100 µM (inactive)
GI50 (SK-OV-3): > 100 µM (inactive)
GI50 (NCI-H226): 69.7 µM (inactive)
GI50 (SF-268): > 100 µM (inactive)
GI50 (HCC 2998): 52.5 µM (inactive)
GI50 (BT-549): > 100 µM (inactive)
GI50 (LOX IMVI): 83.6 µM (inactive)
GI50 (Malme-3M): 85.7 µM (inactive)
GI50 (CCRF-CEM): 54 µM (inactive)
GI50 (HOP-92): 71.4 µM (inactive)
GI50 (SF-295): 95.3 µM (inactive)
GI50 (786-0): > 100 µM (inactive)
GI50 (SNB-75): 18.9 µM (inactive)
GI50 (MDA-MB-231): > 100 µM (inactive)
GI50 (SK-MEL-28): > 100 µM (inactive)

COC(=O)c1c(O)ccc2c1c1c(n2Cc2cc(OC)cc(OC)c2)C(=O)c2ccccc2C1=O
GI50 (U-251): 8.26 µM (inactive)
GI50 (SN12C): 6.03 µM (inactive)
GI50 (MCF7): 4.63 µM (inactive)
GI50 (ACHN): 5.04 µM (inactive)
GI50 (RXF 393): 8.32 µM (inactive)
GI50 (OVCAR-8): 3.72 µM (inactive)
GI50 (SF-539): 11.5 µM (inactive)
GI50 (SK-MEL-5): 8.83 µM (inactive)
GI50 (MOLT-4): 4.42 µM (inactive)
GI50 (K562): 5.28 µM (inactive)
GI50 (A498): 54.2 µM (inactive)
GI50 (RPMI-8226): 2.99 µM (inactive)
GI50 (TK-10): 13 µM (inactive)
GI50 (MDA-N): 3.85 µM (inactive)
GI50 (DU-145): 21 µM (inactive)
GI50 (KM12): 3.23 µM (inactive)
GI50 (IGROV-1): 5.06 µM (inactive)
GI50 (NCI-H23): 8.28 µM (inactive)
GI50 (SK-MEL-2): 10.9 µM (inactive)
GI50 (EKVX): 11.6 µM (inactive)
GI50 (SW-620): 9.51 µM (inactive)
GI50 (NCI-H460): 3.75 µM (inactive)
GI50 (UACC-257): 23.9 µM (inactive)
GI50 (OVCAR-4): 9.93 µM (inactive)
GI50 (T47D): 10.9 µM (inactive)
GI50 (HCT-116): 4.74 µM (inactive)
GI50 (CAKI-1): 18.7 µM (inactive)
GI50 (HL-60): 7.5 µM (inactive)
GI50 (HCT-15): 3.93 µM
GI50 (Hs-578T): 7.55 µM (inactive)
GI50 (M14): 8.13 µM (inactive)
GI50 (NCI-H522): 3.03 µM (inactive)
GI50 (A549): 5.07 µM (inactive)
GI50 (HOP-62): 9.29 µM (inactive)
GI50 (HT-29): 2.44 µM (inactive)
GI50 (SNB-19): 24.4 µM (inactive)
GI50 (PC-3): 4.39 µM (inactive)
GI50 (MDA-MB-435): 2.67 µM (inactive)
GI50 (OVCAR-5): 21 µM (inactive)
GI50 (SR): 2.44 µM (inactive)
GI50 (UO-31): 4.56 µM (inactive)
GI50 (OVCAR-3): 7.87 µM (inactive)
GI50 (COLO 205): 1.86 µM (inactive)
GI50 (NCI/ADR-RES): 4.06 µM (inactive)
GI50 (SK-OV-3): 6.52 µM (inactive)
GI50 (NCI-H226): 14.7 µM (inactive)
GI50 (SF-268): 8.32 µM (inactive)
GI50 (HCC 2998): 2.72 µM (inactive)
GI50 (BT-549): 6.71 µM (inactive)
GI50 (LOX IMVI): 8.67 µM (inactive)
GI50 (Malme-3M): 6.34 µM (inactive)
GI50 (CCRF-CEM): 3.7 µM (inactive)
GI50 (HOP-92): 4.92 µM (inactive)
GI50 (SF-295): 11.4 µM (inactive)
GI50 (786-0): 7.74 µM (inactive)
GI50 (SNB-75): 14.1 µM (inactive)
GI50 (MDA-MB-231): 7.13 µM (inactive)
GI50 (SK-MEL-28): 13.7 µM (inactive)
